Source: patent publication US4198421A, “Antiinflammatory 2-substituted-dibenzo[2,3:6,7]oxepino[4,5-d]imidazoles” (E. I. Du Pont de Nemours and Company, priority 1978, dated 1980)
Read-outs that look alike come from different tables or passages of the source.

Test system: adjuvant-induced arthritis
Test: Established Adjuvant-Induced Arthritis in Rats (A.A.)
Format: in vivo, Charles River Lewis male rats
Conditions: Rattus norvegicus, 168 h, read-out: A. A. ED50%
[1] = ED50% decrease from control paw volume (uninjected, left hind paw), established adjuvant-induced arthritis, oral gavage daily, 7 days, read by visual fit

| Compound | ED50 [1] [mg/kg] | ED50 (po) [mg/kg] |
| --- | --- | --- |
| Fc1ccc2c(c1)Oc1ccccc1-c1nc(SC(F)(F)C(F)F)[nH]c1-2 [1 (k), 10-Fluoro-2-[(1,1,2,2-tetrafluoroethyl)thio]-1H-dibenzo[2,3:6,7]oxepino[4,5-d]imidazole] | < 27 | – |
| O=S(=O)(c1nc2c([nH]1)-c1ccc(F)cc1Oc1ccccc1-2)C(F)(F)C(F)F [Example 2, 10-Fluoro-2-[(1,1,2,2-tetrafluoroethyl)sulfonyl]-1H-dibenzo[2,3:6,7]oxepino[4,5-d]imidazole] | 4.5 | – |
| CC(C)Cc1ccc(C(C)C(=O)O)cc1 (centres unmarked) [Ibuprofen, ibuprofen] | 100 | – |
| COc1ccc2c(c1)c(CC(=O)O)c(C)n2C(=O)c1ccc(Cl)cc1 [Indomethacin, indomethacin] | – | 0.3 |
| CCCCC1C(=O)N(c2ccccc2)N(c2ccccc2)C1=O [Phenylbutazone, phenylbutazone] | 10 | – |
